Tests used:
[1] = test system: STZ-induced diabetic rats; assay: von Frey test in rat STZ-induced diabetes model; format: in vivo; details: for 50% withdrawal threshold by von Frey test: mean ± SE, n=10
Experimental: The activity of the compound of the present disclosure was evaluated according to the following procedure.
(§1) Compound 9 (50 mg/mL) was diluted with water for injection to obtain a 1 mg/mL administration specimen. For the specimens to be administered at 0.1 mg/mL and 0.01 mg/mL, the specimen to be administered at 1 mg/mL was diluted stepwise with water for injection. Each administration specimen was divided into PP disposable tubes every day and stored in a storehouse (freezer: MDF-MU339H-PJ, PHC Corporation) under the condition of freezing (−30° C. to −20° C., measured value: −26.4 to −24.5° C.). Preparation was performed on the day before the start of administration.
(§2) Water for injection was added to and dissolved in Pregabalin taken out from the capsule to obtain 2 mg/mL. It was prepared before use.
(§3) • Animal species: rat (SPF) • Strain: Crl: CD (SD) • Date of animal acquisition, gender, age in weeks, number of animals acquired, and weight range after 1 day of acquisition • First and second courses: Apr. 6, 2022, male, 7 weeks old, 35 animals, 217 to 237 g • Third and fourth courses: Apr. 13, 2022, male, 7 weeks old, 35 animals, 216 to 235 g • Source: […].
Among the animals having a 50% withdrawal threshold of 8 g or more in the von Frey test measured during the preliminary breeding period, two animals from young animals with animal numbers were assigned to non-diabetes-induced animals, and the remaining animals were assigned to diabetes-induced animals.
Among the diabetes-induced animals, animals having a blood glucose level of 300 mg/dL or less were excluded from the grouping subjects, and were grouped using a computer program (IBUKI, Nihon Bioresearch Center, Inc.) so that the body weight and the average blood glucose level of each group were approximately equal. That is, the animals for the first and second courses and the third and fourth courses were grouped into one non-diabetes animal for Group 1, and 5 […] animals for Groups 2 to 6. Note that the grouping was performed so that there were 4 examples in Group 1 and 10 examples in each of Groups 2 to 6.
• Administration method: Using a syringe (Terumo Corporation) equipped with a 25 G winged injection needle (Terumo Corporation), tail vein administration was performed. Note that a 0.75 mmol/L CAB solution was administered to a non-diabetes-induced control group.
(§4) • Dose volume: calculated at 2 mL/kg based on the body weight on the day of administration. • Number of times of administration: once • Day of administration: 7 days before the day of starting administration of the test substance.
• Administration method: Using a syringe (Terumo Corporation) equipped with a 25 G winged injection needle (Terumo Corporation), tail vein administration was performed. Note that physiological saline was administered to the non-diabetes control group and the diabetes control group.
(§5) • Dose volume: calculated at 1 mL/kg based on the body weight on the day of administration. • Number of times of administration: 9 times • Interval of administration: once every 3 days (evaluation was performed on the day after administration) • Day of starting administration: day 8 of STZ administration (day of STZ administration is counted as day 1).
• Administration method: Using a polypropylene disposable syringe (Terumo Corporation) equipped with a metal oral zonde for a rat (Fuchigami kikai Ltd.), forced oral administration was performed.
• Dose volume: calculated at 10 mL/kg based on the body weight on the day of administration. • Number of times of administration: Administration was performed once on the day of evaluation of neuropathic pain, twice in total, and on the other days of administration, a vehicle for a control substance (water for injection) was orally administered. […]

[2] = Observation of general condition in rat STZ-induced diabetes model; format: in vivo; details: number of animals, 10 per group
Experimental: as §1, §2, §3, §4, §5
• Dose volume: calculated at 10 mL/kg based on the body weight on the day of administration. • Number of times of administration: Administration was performed once on the day of evaluation of neuropathic pain, twice in total, and on the other days of administration, a vehicle for a control substance (water for injection) was orally administered.
• Observation of general condition • Observation was performed once a day.

For `CC[C@@]1(C)Oc2cc(ccc2O)C[C@H](NC)C(=O)N[C@@H](C(C)C)C(=O)N[C@@H]1C(=O)N[C@@H](CC(=O)O)C(=O)O` [Compound 9], the “50% withdrawal threshold by von Frey test” value ([1]; 0.01 mg/kg iv group, Pre: before STZ administration) was 14.6 ± 0.4 g, the “change in the 50% withdrawal threshold (von Frey test)” value ([1]; 0.01 mg/kg iv group, as compared with the non-diabetes control group (so in the source)) was “no significant change” and the “50% withdrawal threshold by von Frey test” value ([1]; 0.01 mg/kg iv once every 3 days from day 8, day 14 of STZ administration) was 5.7 ± 0.5 g. The “50% withdrawal threshold by von Frey test” value ([1]; 0.01 mg/kg iv once every 3 days from day 8, day 28 of STZ administration) was 3.8 ± 0.2 g, the “50% withdrawal threshold by von Frey test” value ([1]; 0.1 mg/kg iv group, Pre: before STZ administration) was 13.1 ± 0.8 g and the “change in the 50% withdrawal threshold (von Frey test)” value ([1]; 0.1 mg/kg iv group, as compared with the non-diabetes control group (so in the source)) was “no significant change”. For the same compound, the “50% withdrawal threshold by von Frey test” value ([1]; 0.1 mg/kg iv once every 3 days from day 8, day 14 of STZ administration) was 5.7 ± 0.5 g, the “50% withdrawal threshold by von Frey test” value ([1]; 0.1 mg/kg iv once every 3 days from day 8, day 28 of STZ administration) was 4.8 ± 0.4 g and the “50% withdrawal threshold by von Frey test” value ([1]; 1 mg/kg iv group, Pre: before STZ administration) was 13.5 ± 0.7 g. For the same compound, the “change in the 50% withdrawal threshold (von Frey test)” value ([1]; 1 mg/kg iv group, day 28 after STZ administration, as compared with the diabetes control group) was “significant increase”, the “50% withdrawal threshold by von Frey test” value ([1]; 1 mg/kg iv once every 3 days from day 8, day 14 of STZ administration) was 5.8 ± 0.5 g and the “50% withdrawal threshold by von Frey test” value ([1]; 1 mg/kg iv once every 3 days from day 8, day 28 of STZ administration) was 6.7 ± 0.7 † g. The “effect on diabetic peripheral neuropathic pain” value ([1]; STZ-induced diabetic rats, conclusion of the discussion) was “suppressing effect”, the general condition ([2]; 0.01 mg/kg iv, day 1 of STZ administration) was 10 and the general condition ([2]; 0.01 mg/kg iv, day 2 of STZ administration) was 10. The general condition ([2]; 0.01 mg/kg iv, day 3 of STZ administration) was 10, the general condition ([2]; 0.01 mg/kg iv, day 4 of STZ administration) was 10 and the general condition ([2]; 0.01 mg/kg iv, day 5 of STZ administration) was 10. It also gave a general condition ([2]; 0.01 mg/kg iv, day 6 of STZ administration) of 10, a general condition ([2]; 0.01 mg/kg iv, day 7 of STZ administration) of 10 and a general condition ([2]; 0.01 mg/kg iv, day 8 of STZ administration) of 10. The general condition ([2]; 0.01 mg/kg iv, day 9 of STZ administration) was 10, the general condition ([2]; 0.01 mg/kg iv, day 10 of STZ administration) was 10 and the general condition ([2]; 0.01 mg/kg iv, day 11 of STZ administration) was 10. It also gave a general condition ([2]; 0.01 mg/kg iv, day 12 of STZ administration) of 10, a general condition ([2]; 0.01 mg/kg iv, day 13 of STZ administration) of 10 and a general condition ([2]; 0.01 mg/kg iv, day 14 of STZ administration) of 10. The general condition ([2]; 0.01 mg/kg iv, day 15 of STZ administration) was 10, the general condition ([2]; 0.01 mg/kg iv, day 16 of STZ administration) was 10 and the general condition ([2]; 0.01 mg/kg iv, day 17 of STZ administration) was 10. For the same compound, the general condition ([2]; 0.01 mg/kg iv, day 18 of STZ administration) was 10, the general condition ([2]; 0.01 mg/kg iv, day 19 of STZ administration) was 10 and the general condition ([2]; 0.01 mg/kg iv, day 20 of STZ administration) was 10. It also gave a general condition ([2]; 0.01 mg/kg iv, day 21 of STZ administration) of 10, a general condition ([2]; 0.01 mg/kg iv, day 22 of STZ administration) of 10 and a general condition ([2]; 0.01 mg/kg iv, day 23 of STZ administration) of 10. It also gave a general condition ([2]; 0.01 mg/kg iv, day 24 of STZ administration) of 10, a general condition ([2]; 0.01 mg/kg iv, day 25 of STZ administration) of 10 and a general condition ([2]; 0.01 mg/kg iv, day 26 of STZ administration) of 10. For the same compound, the general condition ([2]; 0.01 mg/kg iv, day 27 of STZ administration) was 10, the general condition ([2]; 0.01 mg/kg iv, day 28 of STZ administration) was 10 and the general condition ([2]; 0.01 mg/kg iv, day 29 of STZ administration) was 10. It also gave a general condition ([2]; 0.01 mg/kg iv, day 30 of STZ administration) of 10, a general condition ([2]; 0.01 mg/kg iv, day 31 of STZ administration) of 10 and a general condition ([2]; 0.01 mg/kg iv, day 32 of STZ administration) of 10. The general condition ([2]; 0.01 mg/kg iv, day 33 of STZ administration) was 10, the general condition ([2]; 0.01 mg/kg iv, day 34 of STZ administration) was 10 and the general condition ([2]; 0.01 mg/kg iv, day 35 of STZ administration) was 10. The general condition ([2]; 0.1 mg/kg iv, day 1 of STZ administration) was 10, the general condition ([2]; 0.1 mg/kg iv, day 2 of STZ administration) was 10 and the general condition ([2]; 0.1 mg/kg iv, day 3 of STZ administration) was 10. For the same compound, the general condition ([2]; 0.1 mg/kg iv, day 4 of STZ administration) was 10, the general condition ([2]; 0.1 mg/kg iv, day 5 of STZ administration) was 10 and the general condition ([2]; 0.1 mg/kg iv, day 6 of STZ administration) was 10. The general condition ([2]; 0.1 mg/kg iv, day 7 of STZ administration) was 10 and the general condition ([2]; 0.1 mg/kg iv, day 8 of STZ administration) was 10.

Source: patent US20260158102A1, “CYCLIC PEPTIDE DERIVATIVE COMPOSITION FOR TREATING OR PREVENTING NEUROPATHIC PAIN AND/OR INFLAMMATORY PAIN” (DKS Co. Ltd., priority 2022, published 2026)
